The values below come from US12109327B2, “Scaffolds from self-assembling tetrapeptides support 3D spreading, osteogenic differentiation and angiogenesis of mesenchymal stem cells” (KING ABDULLAH UNIVERSITY OF SCIENCE AND TECHNOLOGY, priority 2020, dated 2024).

The nature of data set [1]: Vial inversion test: gelation time and critical gelation concentration. As to conditions: aqueous solution, 1× PBS. The data set is classed as physicochemical. Here is the method:
In one embodiment, an instant hydrogel formation can be observed when PBS buffer is added to the peptide solution. In one embodiment, the gelation time is determined using a vial inversion test performed at different peptide concentrations in 1×PBS to meet physiological conditions. FIG. 13 compares the gelation time of IVFK and IVZK at different concentration.
The lyophilized peptide powders were dissolved in Milli-Q® water by vortexing into a clear solution at room temperature. Then, 10× phosphate-buffered saline (PBS) was added to the aqueous peptide solution at a final volume ratio of peptide solution to 10×PBS of 9:1. The vial inversion test was performed with different peptide concentrations to find the critical gelation concentration (CGC). To study the spatial structure of the peptide solution during the assembly process, two-dimensional (2D) NMR was performed using Bruker Avance III 600 MHz. Furthermore, scanning electron microscopy (SEM) was performed to visualize the morphology of the self-assembled nanofibers.

Data set [2] concerns BM-MSCs. The data set is described as follows: Quantitative RT-PCR of osteogenic genes. The data set is classed as cell-based, human. Here is the method: Real-time polymerase chain reaction (PCR) values of the BM-MSC gene expressions of the bone morphogenetic protein (BMP-2) (FIG. 37), bone sialoprotein 2 (IBSP) (FIG. 35), osteopontin (OPN) (FIG. 38), osterix (OSX) (FIG. 39), and RUNX2 (FIG. 36) are evaluated after 30 days of culture. […] In FIGS. 35-39, * mens p<0.05 and ** means p<0.001, indicating statistical significance.
The BM-MSCs were cultured on different scaffolds with an osteogenic medium for 4 weeks. Total RNA was extracted using the TRIzol™ reagent. RNA concentration and purity were measured using a NanoDrop® 8000 spectrophotometer (Thermo Fisher®). Complementary DNA (cDNA) was synthesized using the ImProm-II Reverse Transcription System. Primer sequences were taken from previously published studies and are summarized in below. Relative quantification was performed using the comparative CT (2-ΔΔCT) and normalized against glyceraldehyde 3-phosphate dehydrogenase (GAPDH), which was used as a housekeeping gene to calculate the fold change in gene expression. BM-MSCs on a 2D culture using basal media were used as controls.

The subject of data set [3] is BM-MSCs. The data set is described as follows: Osteocalcin immunostaining, confocal microscopy. The data set is classed as cell-based, human. From the text: (§1) In one embodiment, the BM-MSCs differentiate to the osteogenic lineage. The expression of osteocalcin is stained and imaged after 3 weeks of culture in osteogenic medium using confocal microscopy, as shown in FIG. 33. FIG. 33 is confocal images showing the expression of osteocalcin stained in green, and the cell nuclei stained in blue using DAPI. The scale bar in FIG. 33 is 100 μm. […] Additionally, the levels of alkaline phosphatase (ALP), an early osteogenic marker expressed by osteoblast cells, are also measured to confirm the commitment of BM-MSCs toward the osteogenic lineage. […] Furthermore, the ALP activity increased with time during the initial 2 weeks as an indicator of osteogenic differentiation. In FIG. 34, * means p<0.05, indicating statistical significance.
Immunostaining was performed after each time point of culture. Briefly, cells were fixed by 4% paraformaldehyde solution for 30 min and incubated in a cold cytoskeleton buffer (3 mM MgCl2, 300 mM sucrose, and 0.5% Triton X-100 in PBS solution) for 5 min to permeabilize the membranes of the cells. The permeabilized cells were incubated in a blocking buffer solution, 5% fetal bovine serum (FBS), 0.1% Tween-20, and 0.02% […] in PBS for 30 min. […]

The subject of data set [4] is BM-MSCs. The data set is described as follows: Alkaline phosphatase (ALP) assay. The data set is classed as cell-based, human.
Description: as §1
Alkaline phosphatase (ALP) was measured after 1 and 2 weeks of culture using an alkaline phosphatase substrate kit. At the end of each culture time, the scaffolds were washed by PBS and cells were lysed using 1% Triton X-100. Then, 80 μL of the cell lysate mixture was added to 50 μL of the para-nitrophenylphosphate (pNPP) substrate (5 mM) and incubated at room temperature for 2 h. The reaction was inhibited by the addition of a stop solution, and the absorbance was measured at 405 nm using a multimode plate reader (PHERAstar® FS, Germany).

The next data set has as its system MSCs. The data set is described as follows: SEM of cell-matrix interaction. The data set is classed as cell-based, human. Conditions: after 14 days of culture. Here is the method: Scale bars are 5 and 10 μm, in the left and right panels respectively.
SEM was also used to determine the cell-matrix interaction. First, the cells encapsulated in hydrogels were fixed in 2.5% glutaraldehyde for overnight (4° C.) and then washed using PBS. The samples were subsequently incubated in 1% osmium tetroxide for one hour and washed with water. Afterwards, the dehydration was done by immersing them in increasing concentrations of ethanol: 30, 50, 70, 90 and 100%, 15 min each step. Then, the samples were processed in critical point dryer. The dried samples were then mounted and coated with 5 nm Ir thickness.

On to “Ac-Ile-Val-Phe-Lys-NH2 (Ac-IVFK-NH2) [aromatic self-assembling tetrapeptide forming hydrogel scaffold]”, for which the “critical gelation concentration (CGC)” value in data set [1] came out at 2 mg/mL. For the same substance, the “expression of osteogenic genes OPN and BMP-2” value in the data set on BM-MSCs [2] (20 kPa hydrogel versus 50 kPa scaffold) was “able to support cell differentiation much better than the 50 kPa scaffold”. In addition, in the data set with BM-MSCs [2] (after 30 days of culture), the “IBSP gene expression level” value is “highest”, the OPN gene expression result is listed as “upregulated”, the OSX expression level entry is “low” and the Runx2 gene expression result is reported as “higher”. Also, in the data set on BM-MSCs [3] (3 weeks in osteogenic medium), the osteocalcin expression result is recorded as “comparable to those cultured in the collagen control group”. Moreover, in the data set on BM-MSCs [3] (20 kPa scaffold compared to the others), the osteocalcin expression entry is “more intense”. For the same substance, in the data set on BM-MSCs [4] (after 7 days in osteogenic medium, versus collagen, p<0.05), the ALP activity result is given as “Significantly higher ALP activity”. Further, in the data set with BM-MSCs [4] (hydrogel around 20 kPa (4 mg/mL) versus 50 kPa (8 mg/mL)), the ALP release entry is reported as “higher ALP release than that at 50 kPa”. Moreover, in the data set with MSCs, the “cell morphology by SEM” value is “elongated spindlelike morphology”.
